# US5147871A, “Anti-bacterial cephalosporin compounds” (Hoffmann La-Roche, Inc., priority 1991, dated 1992)
# Counter-ions that a name gives are not always drawn. Like-named read-outs stand apart in the source and are kept apart here.
# What was measured:
# Assay type in all cases: cell-based
# S. marcescens SM = test: In vitro MIC, Broth Dilution Method, S. marcescens SM; conditions: Serratia marcescens
# From the text: (§1) The in vitro activity of the compounds of the present invention as measured by the Minimum Inhibitory Concentration in micrograms/ml utilizing the Agar Well Diffusion Method or Broth Dilution Method against a variety of Gram-positive and Gram-negative organisms is as follows:
# (§2) In vitro MIC (μg/ml) Broth Dilution Method
# E. coli 48 = test: In vitro MIC, Broth Dilution Method, E. coli 48; conditions: Escherichia coli
# S. aureus Smith = test: In vitro MIC, Broth Dilution Method, S. aureus Smith; conditions: Staphylococcus aureus
# K. pneumoniae A = test: In vitro MIC, Broth Dilution Method, K. pneumoniae A; conditions: Klebsiella pneumoniae
# P. mirabilis 190 = test: In vitro MIC, Broth Dilution Method, P. mirabilis 190; conditions: Proteus mirabilis
# E. cloacae 7099 = test: In vitro MIC, Broth Dilution Method, E. cloacae 7099; conditions: Enterobacter cloacae
# P. aeruginosa Stone 130 = test: In vitro MIC, Broth Dilution Method, P. aeruginosa Stone 130; conditions: Pseudomonas aeruginosa, STONE130
# From the text: as §1, §2
# P. vulgaris ATCC 6380 = test: In vitro MIC, Broth Dilution Method, P. vulgaris ATCC 6380; conditions: Proteus vulgaris
# From the text: as §1, §2
# E. cloacae 9570A = test: In vitro MIC, Broth Dilution Method, E. cloacae 9570A; conditions: Enterobacter cloacae
# From the text: as §1, §2
# E. cloacae 214 = test: In vitro MIC, Broth Dilution Method, E. cloacae 214; conditions: Enterobacter cloacae
# From the text: as §1, §2
# P. aeruginosa 503-56 = test: In vitro MIC, Broth Dilution Method, P. aeruginosa 503-56; conditions: Pseudomonas aeruginosa, 50356
# From the text: as §1, §2
# S. aureus 95 = test: In vitro MIC, Broth Dilution Method, S. aureus 95; conditions: Staphylococcus aureus
# From the text: as §1, §2
# E. cloacae 948-1 = test: In vitro MIC, Broth Dilution Method, E. cloacae 948-1; conditions: Enterobacter cloacae, 9481
# From the text: as §1, §2
# E. cloacae 2367-2 = test: In vitro MIC, Broth Dilution Method, E. cloacae 2367-2; conditions: Enterobacter cloacae, 23672
# From the text: as §1, §2
# [1] = ATCC6380, P. vulgaris ATCC 6380, Broth Dilution Method, read-out: In vitro MIC
Structure (SMILES),MIC (S. marcescens SM) [mg/L],MIC (E. coli 48) [mg/L],MIC (S. aureus Smith) [mg/L],MIC (K. pneumoniae A) [mg/L],MIC (P. mirabilis 190) [mg/L],MIC (E. cloacae 7099) [mg/L],MIC (P. aeruginosa Stone 130) [mg/L],MIC (P. vulgaris ATCC 6380; [1]) [mg/L],MIC (E. cloacae 9570A) [mg/L],MIC (E. cloacae 214) [mg/L],MIC (P. aeruginosa 503-56) [mg/L],MIC (S. aureus 95) [mg/L],MIC (E. cloacae 948-1) [mg/L],MIC (E. cloacae 2367-2) [mg/L],"MIC (P. vulgaris ATCC 6380; ATCC6380, read-out: In vitro MIC) [mg/L]"
"CCn1cc(C(=O)OCC2=C(C(=O)O)N3C(=O)[C@@H](NC(=O)COc4ccccc4)[C@H]3SC2)c(=O)c2ccc(C)nc21 [Compound A, [6R-(6alpha,7beta)]-3-[[[(1-Ethyl-1,4-dihydro-7-methyl-4-oxo-1,8-naphthydrin-3-yl)carbonyl]oxy]methyl]-8-oxo-7-[(phenoxyacetyl)amino]-5-thia-1-azabicyclo[4.2.0]oct-2-ene-2-carboxylic acid hydrate]",16,32,0.25,16,8,16,128,8,64,128,128,,,,
"CCn1cc(C(=O)OCC2=C(C(=O)O)N3C(=O)[C@@H](NC(=O)/C(=N\OC)c4csc(N)n4)[C@H]3SC2)c(=O)c2ccc(C)nc21 [Compound C, [6R-(6alpha,7beta)(Z)]-7-[[(2-Amino-4-thiazolyl) (methoxyimino)acetyl]amino]-3-[[[(1-ethyl-1,4-dihydro-7-methyl-4-oxo-1,8-naphthyridin-3-yl)carbonyl]oxy]methyl]-8-oxo-5-thia-1-azabicyclo [4.2.0]oct-2-ene-2-carboxylic acid sodium salt]",1,0.5,2,,0.16,8,128,0.25,2,8,128,8,8,16,
"CCn1cc(C(=O)OCC2=C(C(=O)O)N3C(=O)[C@@H](NC(=O)/C(=N\OC)c4csc(N)n4)[C@H]3SC2)c(=O)c2cc3c(cc21)OCO3 [Compound D, [6R-(6alpha,7beta)(Z)]-7-[[(2-Amino-4-thiazolyl) (methoxyimino)acetyl]amino]-3-[[[(5-ethyl-5,8-dihydro-8-oxo-1,3-dioxolo[4,5-g]quinolin-7-yl)carbonyl]oxy]methyl]-8-oxo-5-thia-1-azabicyclo [4.2.0]oct-2-ene-2-carboxylic acid sodium salt]",0.5,,2,,0.008,0.5,16,,1,0.5,32,4,1,2,0.063
"CCn1cc(C(=O)OCC2=C(C(=O)O)N3C(=O)[C@@H](NC(=O)Cc4cccs4)[C@H]3SC2)c(=O)c2cc(F)c(N3CCN(C=O)CC3)cc21 [Compound G, [6R-(6alpha,7beta)]-3-[[[[1-Ethyl-6-fluoro-1,4-dihydro-7-(4-formyl-1-piperazinyl)-4-oxoquinolin-3-yl]-carbonyl]oxy]methyl]-7-[(2-thienylacetyl)amino]-5-thia-1-azabicyclo[4.2.0]oct-2-ene-2-carboxylic acid sodium salt]",4,8,0.25,4,4,2,32,4,8,64,64,4,8,32,
"CCn1cc(C(=O)OCC2=C(C(=O)O)N3C(=O)[C@@H](NC(=O)Cc4cccs4)[C@H]3SC2)c(=O)c2cc3c(cc21)OCO3 [Compound F, [6R-(6alpha,7beta)]-3-[[[(5-Ethyl-5,8-dihydro-8-oxo-1,3-dioxolo[4,5-g]quinolin-7-yl)carbonyl]oxy]methyl]-8-oxo-7-[(2-thienylacetyl)amino]-5-thia-1-azabicyclo-[4.2.0]oct-2-ene-2-carboxylic acid sodium salt]",1,2,,1,0.5,,32,0.5,2,2,64,4,1,1,
"CCn1cc(C(=O)OCC2=C(C(=O)O)N3C(=O)[C@@H](NC(=O)COc4ccccc4)[C@H]3SC2)c(=O)c2cc(F)c(N3CCN(C=O)CC3)cc21 [Compound E, [6R-(6alpha,7beta)]-3-[[[[1-Ethyl-6-fluoro-1,4-dihydro-7-(4-formyl-1-piperazinyl)-4-oxo-quinolin-3-yl]-carbonyl]oxy]methyl-8-oxo-7-[(phenoxyacetyl)amino]-5-thia-1-azabicyclo[4.2.0]oct-2-ene-2-carboxylic acid sodium salt]",4,,0.063,2,0.5,2,16,4,8,8,32,2,8,4,
"CCn1cc(C(=O)OCC2=C(C(=O)O)N3C(=O)[C@@H](NC(=O)COc4ccccc4)[C@H]3SC2)c(=O)c2cc3c(cc21)OCO3 [Compound B, [6R-(6alpha,7beta)]-3-[[[(5-Ethyl-5,8-dihydro-8-oxo-1,3-dioxolo[4,5-g]quinolin-7-yl)carbonyl]oxy]methyl]-8-oxo-7-[(phenoxyacetyl)amino]-5-thia-1-azabicyclo[4.2.0]oct-2-ene-2-carboxylic acid monosodium salt]",1,2,0.25,1,,,32,0.5,2,2,64,4,2,1,
"CCn1cc(C(=O)OCC2=C(C(=O)O)N3C(=O)[C@@H](NC(=O)/C(=N\OC)c4csc(N)n4)[C@H]3SC2)c(=O)c2cc(F)c(N3CCCC3)cc21 [Compound I, [6R-(6alpha,7beta)(Z)]-7-[[(2-Amino-4-thiazolyl) (methoxyimino)acetyl]amino]-3-[[[[1-ethyl-6-fluoro-1,4-dihydro-7-(1-pyrrolidinyl)-4-oxoquinolin-3-yl]-carbonyl]oxy]methyl]-8-oxo-5-thia-1-azabicyclo[4.2.0]oct-2-ene-2-carboxylic acid sodium salt]",1,0.5,0.25,0.5,0.031,2,8,0.5,2,4,32,0.5,4,4,
"CCn1cc(C(=O)OCC2=C(C(=O)O)N3C(=O)[C@@H](NC(=O)COc4ccccc4)[C@H]3SC2)c(=O)c2cc(F)c(N3CCCC3)cc21 [Compound H, [6R-(6alpha,7beta)]-3-[[[[1-Ethyl-6-fluoro-1,4-dihydro-7-(1-pyrrolidinyl)-4-oxo-quinolin-3-yl]carbonyl]oxy]methyl]-8-oxo-7-[(phenoxyacetyl)amino]-5-thia-1-azabicyclo[4.2.0]oct-2-ene-2-carboxylic acid sodium salt]",32,32,0.25,32,0.5,2,32,32,32,32,64,0.5,32,32,
